This test has as its system recombinant guanylate cyclase reporter cell line. As to the kind of experiment: Effect on a recombinant guanylate cyclase reporter cell line. It is filed as cell-based. Conditions: in some cases mean values for individual determinations, read-out: MEC (minimum effective concentration). On the procedure:
B-2. Effect on a Recombinant Guanylate Cyclase Reporter Cell Line
The cellular activity of the compounds according to the invention is determined using a recombinant guanylate cyclase reporter cell line, as described in F. Wunder et al., Anal. Biochem. 339, 104-112 (2005).
Representative MEC values (MEC=minimum effective concentration) for the compounds of the invention are shown in the table below (in some cases as mean values for individual determinations): […]
As to `Cc1cc(OCc2c(F)cccc2F)c2nc(C)c(C(=O)NOC(C)c3ccccc3)n2c1` (racemic) [Example 78, rac-8-[(2,6-Difluorobenzyl)oxy]-2,6-dimethyl-N-(1-phenylethoxy)imidazo[1,2-a]pyridine-3-carboxamide], the minimal effective concentration worked out at 1 µM.

Take `Cc1cc(OCc2c(F)cccc2F)c2nc(C)c(C(=O)NOCCO)n2c1` [Example 1, 8-[(2,6-Difluorobenzyl)oxy]-N-(2-hydroxyethoxy)-2,6-dimethylimidazo[1,2-a]pyridine-3-carboxamide]: the minimal effective concentration worked out at 0.3 µM.

As for `Cc1cc(OCc2c(F)cccc2F)c2nc(C)c(C(=O)NOCCN(C)C)n2c1` [Example 2], the minimal effective concentration was determined as 1 µM.

As to `Cc1cc(OCc2c(F)cccc2F)c2nc(C)c(C(=O)NOCC(=O)NCc3ccc(Cl)cc3)n2c1` [Example 4], the minimal effective concentration amounted to 3 µM.

In the case of `Cc1cc(OCc2c(F)cccc2F)c2nc(C)c(C(=O)NOCC(=O)N3CCN(c4ccccc4)CC3)n2c1` [Example 5], the minimal effective concentration came to 10 µM.

For `Cc1cc(OCc2c(F)cccc2F)c2nc(C)c(C(=O)NOC3COC3)n2c1` [Example 6], the minimal effective concentration is 1 µM.

With `Cc1cc(OCc2c(F)cccc2F)c2nc(C)c(C(=O)NOCCN)n2c1` [Example 7, N-(2-Aminoethoxy)-8-[(2,6-difluorobenzyl)oxy]-2,6-dimethylimidazo[1,2-a]pyridine-3-carboxamide hydrate], the minimal effective concentration worked out at 1 µM.

Regarding `Cc1cc(OCc2c(F)cccc2F)c2nc(C)c(C(=O)NOCC3CCCN3)n2c1` (stereo not shown) [Example 8], the minimal effective concentration amounted to 3 µM.

Regarding `Cc1cc(OCc2c(F)cccc2F)c2nc(C)c(C(=O)NOCC(N)C(C)C)n2c1` (stereo not shown) [Example 9], the minimal effective concentration worked out at 1 µM.

For `Cc1cc(OCc2c(F)cccc2F)c2nc(C)c(C(=O)NOC[C@H](O)CO)n2c1` [Example 11, 8-[(2,6-Difluorobenzyl)oxy]-N-{[(2R)-2,3-dihydroxypropyl]oxy}-2,6-dimethylimidazo[1,2-a]pyridine-3-carboxamide], the minimal effective concentration worked out at 1 µM.

On to `Cc1cc(OCc2c(F)ccc(F)c2F)c2nc(C)c(C(=O)NN3CCOCC3)n2c1` [Example 12, 2,6-Dimethyl-N-(morpholin-4-yl)-8-[(2,3,6-trifluorobenzyl)oxy]imidazo[1,2-a]pyridine-3-carboxamide], for which the minimal effective concentration amounted to 1 µM.

Consider `Cc1cc(OC(C)c2c(F)cccc2F)c2nc(C)c(C(=O)NOCCO)n2c1` (stereo not shown) [Example 13], for which the minimal effective concentration is 10 µM.

Consider `O=C(NOCCO)c1cnc2c(OCc3c(F)cccc3F)cccn12` [Example 14], for which the minimal effective concentration was determined as 10 µM.

Take `Cc1nc2c(OCC3CCCCC3)cccn2c1C(=O)NN1CCOCC1` [Example 15]: the minimal effective concentration is 1 µM.

For `CCCc1nc2c(OCc3c(F)cccc3F)cc(C)cn2c1C(=O)NN1CCOCC1` [Example 17], the minimal effective concentration is 10 µM.

For the compound `CCc1nc2c(OCc3c(F)cccc3F)cc(C)cn2c1C(=O)NN1CCOCC1` [Example 20], the minimal effective concentration came to 1 µM.

With `COc1cc(OCc2c(F)cccc2F)c2nc(C)c(C(=O)NN3CCOCC3)n2c1` [Example 21], the minimal effective concentration amounted to 3 µM.

In the case of `O=C(NN1CCOCC1)c1cnc2c(OCc3c(F)cccc3F)cccn12` [Example 23], the minimal effective concentration is 10 µM.

For `COc1ccc(F)c(COc2cc(C)cn3c(C(=O)NN4CCOCC4)c(C)nc23)c1F` [Example 25], the minimal effective concentration was 10 µM.

Regarding `Cc1cc(OCc2c(F)ccc(C3CC3)c2F)c2nc(C)c(C(=O)NN3CCOCC3)n2c1` [Example 26], the minimal effective concentration is 10 µM.

With `Cc1cc(OCc2c(F)cccc2F)c2nc(C)c(C(=O)NNCC(C)C)n2c1` [Example 27, 8-[(2,6-Difluorobenzyl)oxy]-N′-isobutyl-2,6-dimethylimidazo[1,2-a]pyridine-3-carbohydrazide], the minimal effective concentration turned out to be 0.3 µM.

Take `C=CCONC(=O)c1c(C)nc2c(OCc3c(F)cccc3F)cc(C)cn12` [Example 28]: the minimal effective concentration worked out at 0.3 µM.

For the compound `CONC(=O)c1c(C)nc2c(OCc3c(F)cccc3F)cc(C)cn12` [Example 29], the minimal effective concentration came out at 1 µM.

On to `Cc1cc(OCc2c(F)cccc2F)c2nc(C)c(C(=O)NN3CCN(CCO)CC3)n2c1` [Example 30], for which the minimal effective concentration was found to be 1 µM.

Turning to `Cc1cc(OCc2c(F)cccc2F)c2nc(C)c(C(=O)NNC(=O)C3CCCC3)n2c1` [Example 31], the minimal effective concentration is 0.3 µM.

With `COCC(=O)NNC(=O)c1c(C)nc2c(OCc3c(F)cccc3F)cc(C)cn12` [Example 32], the minimal effective concentration amounted to 1 µM.

In the case of `COCCC(=O)NNC(=O)c1c(C)nc2c(OCc3c(F)cccc3F)cc(C)cn12` [Example 33], the minimal effective concentration was found to be 0.3 µM.

For the compound `Cc1cc(OCc2c(F)cccc2F)c2nc(C)c(C(=O)NNc3ccc4ccccc4c3)n2c1` [Example 34], the minimal effective concentration was 1 µM.

Turning to `Cc1cc(OCc2c(F)cccc2F)c2nc(C)c(C(=O)NNc3nnc(C(C)(C)C)s3)n2c1` [Example 35], the minimal effective concentration came to 3 µM.

As to `Cc1cc(OCc2c(F)cccc2F)c2nc(C)c(C(=O)NNc3cccc(Oc4ccccc4)c3)n2c1` [Example 36], the minimal effective concentration came out at 10 µM.

As to `Cc1cc(OCc2c(F)cccc2F)c2nc(C)c(C(=O)NNC(=O)CN(C)C)n2c1` [Example 37], the minimal effective concentration worked out at 0.1 µM.

Turning to `Cc1cc(OCc2c(F)cccc2F)c2nc(C)c(C(=O)NNC(C)(C)C)n2c1` [Example 38], the minimal effective concentration was 0.3 µM.

Turning to `Cc1cccc(NNC(=O)c2c(C)nc3c(OCc4c(F)cccc4F)cc(C)cn23)c1` [Example 39], the minimal effective concentration is 0.3 µM.

For `Cc1cc(OCc2c(F)cccc2F)c2nc(C)c(C(=O)NNc3ccccn3)n2c1` [Example 40], the minimal effective concentration worked out at 0.3 µM.

With `Cc1cc(OCc2c(F)cccc2F)c2nc(C)c(C(=O)NNCC(F)(F)F)n2c1` [Example 41], the minimal effective concentration was found to be 0.3 µM.

As to `CCCCCCC(C)NNC(=O)c1c(C)nc2c(OCc3c(F)cccc3F)cc(C)cn12` (stereo not shown) [Example 42], the minimal effective concentration amounted to 3 µM.

On to `COc1cc(OC)nc(NNC(=O)c2c(C)nc3c(OCc4c(F)cccc4F)cc(C)cn23)n1` [Example 43], for which the minimal effective concentration was 0.3 µM.

For `CCCCCCC(CCC)NNC(=O)c1c(C)nc2c(OCc3c(F)cccc3F)cc(C)cn12` (stereo not shown) [Example 44], the minimal effective concentration amounted to 3 µM.

For `Cc1cc(OCc2c(F)cccc2F)c2nc(C)c(C(=O)NNc3cccc(C(F)(F)F)c3)n2c1` [Example 45], the minimal effective concentration was found to be 0.3 µM.

`Cc1cc(OCc2c(F)cccc2F)c2nc(C)c(C(=O)NNc3ccc(Cl)cc3)n2c1` [Example 46]: the minimal effective concentration was found to be 0.1 µM.

`Cc1cc(OCc2c(F)cccc2F)c2nc(C)c(C(=O)NNc3ccc(C(C)(C)C)cc3)n2c1` [Example 47]: the minimal effective concentration came to 3 µM.

For `Cc1cc(OCc2c(F)cccc2F)c2nc(C)c(C(=O)NNc3ccc(OC(F)(F)F)cc3)n2c1` [Example 48], the minimal effective concentration was determined as 1 µM.

With `Cc1cc(OCc2c(F)cccc2F)c2nc(C)c(C(=O)NNCCc3ccccc3)n2c1` [Example 49], the minimal effective concentration was 1 µM.

On to `Cc1cc(OCc2c(F)cccc2F)c2nc(C)c(C(=O)NNC(=O)c3nccs3)n2c1` [Example 50], for which the minimal effective concentration stood at 1 µM.

With `Cc1cc(OCc2c(F)cccc2F)c2nc(C)c(C(=O)NN(C)c3ccccc3)n2c1` [Example 51], the minimal effective concentration was found to be 0.1 µM.

`Cc1cc(OCc2c(F)cccc2F)c2nc(C)c(C(=O)NNc3ccc(Cl)c(Cl)c3)n2c1` [Example 52]: the minimal effective concentration worked out at 0.3 µM.

With `Cc1cc(C)cc(NNC(=O)c2c(C)nc3c(OCc4c(F)cccc4F)cc(C)cn23)c1` [Example 53], the minimal effective concentration worked out at 1 µM.

For the compound `Cc1cc(OCc2c(F)cccc2F)c2nc(C)c(C(=O)NNc3cccc(Br)c3)n2c1` [Example 54], the minimal effective concentration was determined as 0.3 µM.

Consider `Cc1cc(OCc2c(F)cccc2F)c2nc(C)c(C(=O)NNc3ccc(F)cc3)n2c1` [Example 55], for which the minimal effective concentration stood at 0.1 µM.

`Cc1cc(OCc2c(F)cccc2F)c2nc(C)c(C(=O)NNc3cnc4ccccc4n3)n2c1` [Example 56]: the minimal effective concentration was 1 µM.

As for `Cc1cc(OCc2c(F)cccc2F)c2nc(C)c(C(=O)NNc3ccnc4c(F)cccc34)n2c1` [Example 57], the minimal effective concentration turned out to be 1 µM.

As to `Cc1cc(OCc2c(F)cccc2F)c2nc(C)c(C(=O)NNc3cc(Cl)c(C)cc3C)n2c1` [Example 58], the minimal effective concentration was 0.3 µM.

On to `Cc1cc(OCc2c(F)cccc2F)c2nc(C)c(C(=O)NOCc3ccccc3C#N)n2c1` [Example 59], for which the minimal effective concentration is 1 µM.

Regarding `Cc1cc(OCc2c(F)cccc2F)c2nc(C)c(C(=O)NNC(=O)C3CC3)n2c1` [Example 60], the minimal effective concentration was determined as 1 µM.

Consider `CCNNC(=O)c1c(C)nc2c(OCc3c(F)cccc3F)cc(C)cn12` [Example 61], for which the minimal effective concentration came to 10 µM.

With `Cc1cc(OCc2c(F)cccc2F)c2nc(C)c(C(=O)NN3CCCCCC3)n2c1` [Example 62], the minimal effective concentration came out at 0.1 µM.

For `CCCCNNC(=O)c1c(C)nc2c(OCc3c(F)cccc3F)cc(C)cn12` [Example 63], the minimal effective concentration was determined as 3 µM.

On to `Cc1cc(OCc2c(F)cccc2F)c2nc(C)c(C(=O)NNC3CCCC3)n2c1` [Example 64], for which the minimal effective concentration is 3 µM.

With `Cc1cc(OCc2c(F)cccc2F)c2nc(C)c(C(=O)NNCc3csc(C)n3)n2c1` [Example 65], the minimal effective concentration stood at 1 µM.

As to `CSCCNNC(=O)c1c(C)nc2c(OCc3c(F)cccc3F)cc(C)cn12` [Example 66], the minimal effective concentration is 3 µM.

Regarding `Cc1cc(OCc2c(F)cccc2F)c2nc(C)c(C(=O)NNCc3ccccc3)n2c1` [Example 67], the minimal effective concentration was 1 µM.

Source of the values: patent US20170057954A1, “SUBSTITUTED IMIDAZO[1,2-A]PYRIDINECARBOXAMIDES AND THEIR USE” (Bayer Pharma Aktiengesellschaft, priority 2014, published 2017).
